Reference: patent US7109231B2, “Cyclohept[b]indole derivatives” (Eli Lilly and Company, priority 2001, dated 2006)

Target: T1, recombinant human secreted phospholipase A2 (Homo sapiens, UniProt P14555)
T1 sequence (P14555 21-144): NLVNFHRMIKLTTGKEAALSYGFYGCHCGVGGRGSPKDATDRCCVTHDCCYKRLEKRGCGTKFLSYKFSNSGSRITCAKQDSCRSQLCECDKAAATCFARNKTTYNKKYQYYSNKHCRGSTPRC
Experiment: chromogenic assay for inhibitors of recombinant human secreted phospholipase A2
Assay type: biochemical
Settings: diheptanoyl thio-PC substrate, pH 7.5, 40° C. for 30 minutes, absorbance at 405 nanometers, titrated in triplicate
Source text: The following chromogenic assay procedure was used to identify and evaluate inhibitors of recombinant human secreted phospholipase A2. The assay described herein has been adapted for high volume screening using 96 well microtiter plates. A general description of this assay method is found in the article, “Analysis of Human Synovial Fluid Phospholipase A2 on Short Chain Phosphatidylcholine-Mixed Micelles: Development of a Spectrophotometric Assay Suitable for a Microtiterplate Reader”, by Laure J. Reynolds, Lori L. Hughes, and Edward A Dennis, Analytical Biochemistry, 204, pp. 190–197, 1992 (the disclosure of which is incorporated herein by reference): […]
A measured volume of racemic dipheptanoyl thio PC supplied in chloroform at a concentration of 100 mg/ml is taken to dryness and redissolved in 10 millimolar TRITON X-100™ nonionic detergent aqueous solution. […]
• 1. […] Read absorbance of wells at 405 nanometers with an automatic plate reader.
Tests were done in triplicate. […] Compounds initially found to be active were re-assayed to confirm their activity and, if sufficiently active, IC50 values were determined. […] In all cases, % inhibition measured at 405 nanometers generated by enzyme reactions containing inhibitors relative to the uninhibited control reactions was determined. […]

For `NC(=O)C1CCCCc2c1c1c(OCC(=O)O)cccc1n2Cc1ccccc1` (stereo not shown) [Example 1, (5-Benzyl-10-carbamoyl-5,6,7,8,9,10-hexahydro-cyclohepta[b]indol-1-yloxy)acetic Acid], the IC50 was 0.248 µM.
